Data on 2 compounds can be found in article PMC12078602 (Nature Communications, 2025).

Data set [1] addresses T1, Glk (BT2493) (Bacteroides thetaiotaomicron, UniProt Q8A4V4).
T1 sequence (Q8A4V4 1-326): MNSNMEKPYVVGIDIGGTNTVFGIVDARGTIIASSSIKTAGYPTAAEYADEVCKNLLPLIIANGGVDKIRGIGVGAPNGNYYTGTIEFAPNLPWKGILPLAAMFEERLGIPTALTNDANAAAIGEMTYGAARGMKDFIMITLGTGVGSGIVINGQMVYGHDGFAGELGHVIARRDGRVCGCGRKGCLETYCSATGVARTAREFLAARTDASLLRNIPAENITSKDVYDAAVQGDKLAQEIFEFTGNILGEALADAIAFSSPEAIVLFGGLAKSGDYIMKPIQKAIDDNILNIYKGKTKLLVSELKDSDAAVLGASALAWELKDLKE
As to the kind of experiment: glucokinase activity in vitro, coupled NADH oxidation, […] nm. The settings on record: 50 mM Tris pH 7.4, 3 mM MgCl2, 10 mM NH4Cl; data only in supplement. It counts as biochemical.

The subject of data set [2] is Cur (Bacteroides thetaiotaomicron VPI-5482). Kind of data set: EMSA.

As to `OC[C@H]1OC(O)[C@H](O)[C@@H](O)[C@@H]1O` (some centres unmarked) [glucose], in data set [1], the “glucokinase activity in vitro, coupled NADH oxidation, 340 nm” value is on record as “We determined that Glk exhibits glucokinase activity in vitro (Supplementary Fig. 4a)”.

In data set [2], fusA2 promoter probe (wild-type) had a Kd of 4.97 pmol.
